Results: patent US20240051985A1, “METTL3 MODULATORS” (ACCENT THERAPEUTICS, INC., priority 2020, published 2024)

Columns and labels:
FLT3 [1] = target: T1, FLT3 (Homo sapiens, UniProt P36888); assay: FLT3 LanthaScreen assay; type: biochemical; conditions: Table 4
T1 sequence (P36888 27-993): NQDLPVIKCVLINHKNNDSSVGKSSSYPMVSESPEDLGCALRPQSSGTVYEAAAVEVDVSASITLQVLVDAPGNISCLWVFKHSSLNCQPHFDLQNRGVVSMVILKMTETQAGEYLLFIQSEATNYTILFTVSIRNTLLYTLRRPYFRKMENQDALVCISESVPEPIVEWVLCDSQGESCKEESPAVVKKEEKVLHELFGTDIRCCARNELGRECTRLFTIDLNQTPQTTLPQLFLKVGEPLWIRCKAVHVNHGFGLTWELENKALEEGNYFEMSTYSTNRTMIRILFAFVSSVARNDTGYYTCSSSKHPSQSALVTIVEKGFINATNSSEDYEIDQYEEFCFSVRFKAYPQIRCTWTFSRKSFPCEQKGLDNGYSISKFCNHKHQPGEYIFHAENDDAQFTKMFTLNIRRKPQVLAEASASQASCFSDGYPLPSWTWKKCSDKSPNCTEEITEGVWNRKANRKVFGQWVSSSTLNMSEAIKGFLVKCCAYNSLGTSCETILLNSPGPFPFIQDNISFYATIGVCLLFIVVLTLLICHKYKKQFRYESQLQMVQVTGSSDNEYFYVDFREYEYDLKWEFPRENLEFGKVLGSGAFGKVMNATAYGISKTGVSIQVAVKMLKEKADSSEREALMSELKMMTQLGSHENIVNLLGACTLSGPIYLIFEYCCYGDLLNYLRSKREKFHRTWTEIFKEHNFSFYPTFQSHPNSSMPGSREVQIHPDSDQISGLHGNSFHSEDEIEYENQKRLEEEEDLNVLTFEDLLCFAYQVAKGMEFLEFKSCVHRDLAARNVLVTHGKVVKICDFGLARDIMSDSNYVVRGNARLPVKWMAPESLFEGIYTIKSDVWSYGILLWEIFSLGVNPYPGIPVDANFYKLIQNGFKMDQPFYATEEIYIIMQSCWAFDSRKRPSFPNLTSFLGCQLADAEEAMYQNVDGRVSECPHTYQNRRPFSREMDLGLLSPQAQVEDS
Experimental: (§1) FLT3/FLT3-ITD LanthaScreen Assays
(§2) Assays were performed in a 10 μl-volume in 384-well polypropylene microplates (Perkin Elmer Proxiplate, cat. No. 6059480) at ambient temperature. Optimized 1× assay buffer was 50 mM Hepes pH 7.5, 2 mM DTT, 0.01% Tween, 0.01% BSA, 10 mM MgCl2. For compound screening FLT3 (final concentration, f.c.=[…]) or FLT3-ITD (f.c.=[…]) was added using a Multidrop Combi (ThermoFisher Scientific, Waltham, MA) and preincubated for 10 min. Reactions were started by adding fluorescein-poly GT (f.c.=200 nM) and ATP (f.c.=57 μM) substrates. Reactions proceeded for 40 minutes. The reactions were stopped with a detection mixture of EDTA (f.c.=20 mM) and terbium-conjugated anti-phoso tyrosine antibody pY20 (f.c.=2 nM). The plates were sealed and read on an Envision (PerkinElmer, Waltham, MA) using 340 nm excitation and emission reads at 495 and 520 nM.

PRMT5-MEP50 = PRMT5-MEP50 (Homo sapiens, UniProt O14744); assay: PRMT5 assay (3H-SAM flashplate); conditions: PRMT5 biochemical assay
PRMT5-MEP50, sequence (O14744 whole entry): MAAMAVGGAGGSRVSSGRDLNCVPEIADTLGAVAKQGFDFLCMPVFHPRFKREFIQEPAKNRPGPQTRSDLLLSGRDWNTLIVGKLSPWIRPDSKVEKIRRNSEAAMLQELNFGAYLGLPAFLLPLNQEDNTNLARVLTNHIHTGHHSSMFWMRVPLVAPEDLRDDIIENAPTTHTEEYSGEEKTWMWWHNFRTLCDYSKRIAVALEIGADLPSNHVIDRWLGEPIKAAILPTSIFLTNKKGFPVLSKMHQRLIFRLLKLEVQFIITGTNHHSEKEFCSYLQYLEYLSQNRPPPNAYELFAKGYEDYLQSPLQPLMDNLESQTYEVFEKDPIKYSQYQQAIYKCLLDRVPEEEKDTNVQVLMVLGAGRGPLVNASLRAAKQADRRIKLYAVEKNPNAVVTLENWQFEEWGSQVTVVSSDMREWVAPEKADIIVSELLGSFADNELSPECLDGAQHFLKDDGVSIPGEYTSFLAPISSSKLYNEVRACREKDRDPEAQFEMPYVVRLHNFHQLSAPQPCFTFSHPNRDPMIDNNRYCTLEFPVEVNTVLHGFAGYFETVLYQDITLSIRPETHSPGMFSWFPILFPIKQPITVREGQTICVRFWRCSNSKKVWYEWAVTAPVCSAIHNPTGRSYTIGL
PRMT5-MEP50, sequence (Q9BQA1 whole entry partner): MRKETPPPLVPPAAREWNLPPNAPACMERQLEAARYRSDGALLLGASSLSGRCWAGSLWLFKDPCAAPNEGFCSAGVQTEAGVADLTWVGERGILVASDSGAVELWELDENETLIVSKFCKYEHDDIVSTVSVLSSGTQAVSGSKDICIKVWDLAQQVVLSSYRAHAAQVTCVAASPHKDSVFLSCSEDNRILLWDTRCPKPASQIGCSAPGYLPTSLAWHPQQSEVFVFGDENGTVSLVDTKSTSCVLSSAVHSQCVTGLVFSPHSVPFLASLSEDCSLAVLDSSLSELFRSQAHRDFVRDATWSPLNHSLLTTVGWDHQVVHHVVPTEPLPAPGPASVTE
Summary of the method: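 PRMT5-MEP50 at 2.5 nM, preincubated 5 min with compound in 20 mM Tris-HCl pH 8.0, 1 mM DTT, 0.01% Tween at ambient temperature. Biotinylated acetylated histone H4 peptide (100 nM) and 3H-SAM (250 nM) react 60 min, quenched with 15 μM cold SAM; methylation captured on streptavidin flashplates and scintillation-counted.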

METTL3/METTL14 = METTL3/METTL14 (Homo sapiens, UniProt Q86U44); assay: METTL3-14 standard enzyme assay (3H-SAM flashplate); conditions: METTL3 biochemical assay
METTL3/METTL14, sequence (Q86U44 whole entry, species assumed): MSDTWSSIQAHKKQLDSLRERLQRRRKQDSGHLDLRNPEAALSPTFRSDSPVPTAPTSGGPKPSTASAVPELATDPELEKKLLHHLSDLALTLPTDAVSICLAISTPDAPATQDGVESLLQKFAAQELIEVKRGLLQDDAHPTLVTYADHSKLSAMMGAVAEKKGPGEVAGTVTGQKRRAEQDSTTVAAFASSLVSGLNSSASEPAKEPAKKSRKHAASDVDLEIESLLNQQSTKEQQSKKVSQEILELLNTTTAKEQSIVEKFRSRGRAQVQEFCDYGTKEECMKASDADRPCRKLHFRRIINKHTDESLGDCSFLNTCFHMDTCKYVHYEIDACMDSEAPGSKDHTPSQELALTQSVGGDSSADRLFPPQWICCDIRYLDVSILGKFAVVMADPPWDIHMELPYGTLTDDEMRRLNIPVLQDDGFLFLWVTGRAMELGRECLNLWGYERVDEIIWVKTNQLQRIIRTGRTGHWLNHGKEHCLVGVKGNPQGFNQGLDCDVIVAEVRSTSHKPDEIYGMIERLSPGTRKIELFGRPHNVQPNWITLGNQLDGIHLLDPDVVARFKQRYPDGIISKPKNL
METTL3/METTL14, sequence (Q9HCE5 whole entry partner, species assumed): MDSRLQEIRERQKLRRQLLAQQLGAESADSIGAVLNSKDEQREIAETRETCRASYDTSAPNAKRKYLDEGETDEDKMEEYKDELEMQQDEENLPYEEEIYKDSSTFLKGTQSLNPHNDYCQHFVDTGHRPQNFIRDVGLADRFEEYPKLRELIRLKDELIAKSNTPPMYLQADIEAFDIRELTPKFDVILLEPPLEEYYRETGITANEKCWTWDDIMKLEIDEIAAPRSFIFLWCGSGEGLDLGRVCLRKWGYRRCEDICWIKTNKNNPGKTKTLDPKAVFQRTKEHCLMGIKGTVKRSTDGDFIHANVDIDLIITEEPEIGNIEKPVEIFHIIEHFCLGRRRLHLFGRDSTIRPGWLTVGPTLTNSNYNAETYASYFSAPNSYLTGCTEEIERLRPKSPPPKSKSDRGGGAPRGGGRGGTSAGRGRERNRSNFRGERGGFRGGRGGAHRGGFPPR
Summary of the method: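 METTL3/METTL14 (2.5 nM) preincubated 5 min, then reacted with 3′-biotinylated RNA UCUGGACUAAA (100 nM) and 3H-SAM (100 nM) for 30 min at ambient temperature in 20 mM HEPES pH 7.5, 50 mM KCl, 250 μM MgCl2, 1 mM DTT. Quenched with 15 μM cold SAM; product captured on streptavidin flashplates, scintillation counted.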

FLT3-ITD [2] = target: T2, FLT3-ITD (Homo sapiens, UniProt P36888); assay: FLT3-ITD LanthaScreen assay; type: biochemical; conditions: Table 4
T2 sequence (P36888 1-993): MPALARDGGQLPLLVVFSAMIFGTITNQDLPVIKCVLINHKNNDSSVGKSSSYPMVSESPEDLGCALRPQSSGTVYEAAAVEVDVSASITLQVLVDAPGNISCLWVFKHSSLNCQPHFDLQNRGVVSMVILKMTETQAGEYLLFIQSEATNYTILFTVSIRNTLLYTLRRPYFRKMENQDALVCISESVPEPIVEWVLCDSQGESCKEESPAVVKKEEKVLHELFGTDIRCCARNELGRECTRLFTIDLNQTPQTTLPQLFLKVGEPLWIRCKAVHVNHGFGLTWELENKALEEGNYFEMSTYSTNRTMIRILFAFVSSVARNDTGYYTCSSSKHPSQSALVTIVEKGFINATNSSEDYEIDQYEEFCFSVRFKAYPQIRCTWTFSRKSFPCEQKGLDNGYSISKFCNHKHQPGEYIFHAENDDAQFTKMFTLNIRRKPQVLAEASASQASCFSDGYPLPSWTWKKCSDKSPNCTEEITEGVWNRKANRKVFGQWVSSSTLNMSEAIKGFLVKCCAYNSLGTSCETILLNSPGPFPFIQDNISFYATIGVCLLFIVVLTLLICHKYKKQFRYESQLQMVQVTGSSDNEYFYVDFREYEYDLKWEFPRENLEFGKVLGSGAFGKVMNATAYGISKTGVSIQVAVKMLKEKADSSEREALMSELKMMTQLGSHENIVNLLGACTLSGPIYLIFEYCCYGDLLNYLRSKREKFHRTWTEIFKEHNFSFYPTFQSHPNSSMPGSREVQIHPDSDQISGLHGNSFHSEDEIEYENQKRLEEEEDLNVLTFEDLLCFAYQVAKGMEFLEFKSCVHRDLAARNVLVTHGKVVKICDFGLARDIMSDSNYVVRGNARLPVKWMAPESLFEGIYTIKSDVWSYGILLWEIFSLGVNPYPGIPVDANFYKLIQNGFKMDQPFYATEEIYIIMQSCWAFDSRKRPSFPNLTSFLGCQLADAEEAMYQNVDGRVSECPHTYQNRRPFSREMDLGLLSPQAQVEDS
Experimental: as §1, §2

FLT3-ITD [3] = target: T2, FLT3-ITD; assay: FLT3-ITD Caliper assay; type: biochemical; conditions: Table 4; read-out: FLT3-ITD Calipher assay IC50
Experimental: (§3) FLT3/FLT3-ITD Caliper Assays
(§4) Assays were performed in a 20 μl-volume in 384-well polypropylene microplates (Perkin Elmer Proxiplate, cat. No. 6059480) at ambient temperature. Optimized 1× assay buffer was 50 mM Hepes pH 7.5, 2 mM DTT, 0.01% Tween, 0.01% BSA, 10 mM MgCl2. For compound screening FLT3 (final concentration, f.c.=0.9 nM) or FLT3-ITD (f.c.=7 nM) was added using a Multidrop Combi (ThermoFisher Scientific, Waltham, MA) and preincubated for 10 min. Reactions were started by adding fluorescein-peptide (sequence 5-FAM-EAIYAAPFAKKK-CONH2) (f.c.=300 μM) and ATP (FLT3 f.c.=97 μM FLT3-ITD f.c.=146 μM) substrates. Reactions proceeded for 60 minutes. The reactions were stopped with LabChip ProfilerPro Separation Buffer containing EDTA (f.c.=20 mM). The plates were read on a Caliper microfluidics reader (PerkinElmer, Waltham, MA).

FLT3 [4] = target: T1, FLT3; assay: FLT3 Caliper assay; type: biochemical; conditions: Table 4; read-out: FLT3 Calipher assay IC50
Experimental: as §3, §4

| IC50 (FLT3 [1]) [nM] | IC50 (PRMT5-MEP50; Table 4) [nM] | IC50 (METTL3/METTL14; Table 4) [nM] | IC50 (FLT3-ITD [2]) [nM] | IC50 (PRMT5-MEP50; Table 3) [nM] | IC50 (METTL3/METTL14; Table 3) [nM] | IC50 (FLT3-ITD [3]) [nM] | IC50 (FLT3 [4]) [nM] | Compound |
| --- | --- | --- | --- | --- | --- | --- | --- | --- |
| ≥ 1000 | 100 to 1000 | ≥ 1000 | ≥ 1000 |  |  |  |  | Cn1ccc(-c2cn([C@@H]3O[C@H](C(=O)N4CCCC(NS(C)(=O)=O)C4)[C@@H](O)[C@H]3O)c3ncnc(N)c23)n1 (stereo in doubt) [Compound I-185] |
| ≥ 1000 | 100 to 1000 | 100 to 1000 | ≥ 1000 |  |  |  |  | CC1CC(NC(=O)[C@H]2O[C@@H](n3cc(-c4ccn(C)n4)c4c(N)ncnc43)[C@H](O)[C@@H]2O)CCN1 (stereo in doubt) [Compound I-211] |
| ≥ 1000 | 100 to 1000 | 100 to 1000 | ≥ 1000 |  |  |  |  | CC1CC(NC(=O)[C@H]2O[C@@H](n3cc(-c4ccn(C)n4)c4c(N)ncnc43)[C@H](O)[C@@H]2O)CCN1 (stereo in doubt) [Compound I-212] |
| ≥ 1000 | 100 to 1000 | 100 to 1000 | ≥ 1000 |  |  |  |  | CC1CC(NC(=O)[C@H]2O[C@@H](n3cc(-c4ccn(C)n4)c4c(N)ncnc43)[C@H](O)[C@@H]2O)CCN1C (stereo in doubt) [Compound I-231] |
| ≥ 1000 |  |  | ≥ 1000 | < 10 | < 10 |  |  | CN1CCC(N(CC[C@H](N)C(=O)O)C(=O)[C@H]2O[C@@H](n3cc(-c4ccn(C)n4)c4c(N)ncnc43)[C@H](O)[C@@H]2O)CC1 [Compound I-31, (S)-2-amino-4-((2S,3S,4R,5R)-5-(4-amino-5-(1-methyl-1H-pyrazol-3-yl)-7H-pyrrolo[2,3-d]pyrimidin-7-yl)-3,4-dihydroxy-N-(1-methylpiperidin-4-yl)tetrahydrofuran-2-carboxamido)butanoic acid] |
| ≥ 1000 | 10 to 100 | < 10 | ≥ 1000 |  |  |  |  | CNc1ccc2ccc(NC(=O)[C@H]3O[C@@H](n4cc(-c5ccn(C)n5)c5c(N)ncnc54)C[C@@H]3O)cc2n1 [Compound I-35] |
| ≥ 1000 | 100 to 1000 | ≥ 1000 | ≥ 1000 |  |  |  |  | COC(=O)[C@@H](N)CCNC(=O)[C@H]1O[C@@H](n2cc(-c3ccn(C)n3)c3c(N)ncnc32)[C@H](O)[C@@H]1O [Compound I-42, methyl (2S)-2-amino-4-{[(2S,3S,4R,5R)-5-[4-amino-5-(1-methyl-1H-pyrazol-3-yl)-7H-pyrrolo[2,3-d]pyrimidin-7-yl]-3,4-dihydroxyoxolan-2-yl]formamido}butanoate] |
| ≥ 1000 | ≥ 1000 | 100 to 1000 | ≥ 1000 |  |  |  |  | Cn1ccc(-c2cn([C@@H]3O[C@H](C(=O)NCC[C@H](N)C(=O)O)[C@@H](O)[C@H]3O)c3ncnc(N)c23)n1 [Compound I-43] |
|  | ≥ 1000 | 100 to 1000 |  |  |  | ≥ 1000 | ≥ 1000 | Cn1ccc(-c2cn([C@@H]3O[C@H](C(=O)N[C@H]4CCc5nc(N)sc5C4)[C@@H](O)[C@H]3O)c3ncnc(N)c23)n1 [Compound I-197] |
|  | 10 to 100 | 100 to 1000 |  |  |  | ≥ 1000 | ≥ 1000 | Cn1ccc(-c2cn([C@@H]3O[C@H](C(=O)NCC4(O)CCNCC4)[C@@H](O)[C@H]3O)c3ncnc(N)c23)n1 [Compound I-198] |
|  | 100 to 1000 | ≥ 1000 |  |  |  | ≥ 1000 | ≥ 1000 | Cn1ccc(-c2cn([C@@H]3O[C@H](C(=O)NN4CCCCC4)[C@@H](O)[C@H]3O)c3ncnc(N)c23)n1 [Compound I-199] |
|  | ≥ 1000 | ≥ 1000 |  |  |  | ≥ 1000 | ≥ 1000 | Cn1ccc(-c2cn([C@@H]3O[C@H](C(=O)N4CCNC(=O)C4)[C@@H](O)[C@H]3O)c3ncnc(N)c23)n1 [Compound I-204] |
|  | 100 to 1000 | 100 to 1000 |  |  |  | ≥ 1000 | ≥ 1000 | CCNc1cc(CNC(=O)[C@H]2O[C@@H](n3cc(-c4ccn(C)n4)c4c(N)ncnc43)[C@H](O)[C@@H]2O)ccn1 [Compound I-226] |
|  | ≥ 1000 | ≥ 1000 |  |  |  | ≥ 1000 | ≥ 1000 | CC(=O)N1CCC(CNC(=O)[C@H]2O[C@@H](n3cc(-c4ccn(C)n4)c4c(N)ncnc43)[C@H](O)[C@@H]2O)CC1 [Compound I-227] |
|  | 100 to 1000 | 100 to 1000 |  |  |  | ≥ 1000 | ≥ 1000 | Cn1ccc(-c2cn([C@@H]3O[C@H](C(=O)NCCc4c[nH]cn4)[C@@H](O)[C@H]3O)c3ncnc(N)c23)n1 [Compound I-228] |
|  | ≥ 1000 | ≥ 1000 |  |  |  | ≥ 1000 | ≥ 1000 | Cn1ccc(-c2cn([C@@H]3O[C@H](C(=O)NCC#N)[C@@H](O)[C@H]3O)c3ncnc(N)c23)n1 [Compound I-229] |
